Values joined by “and” are separate entries in the source; they are usually repeats but may differ in a detail not shown here. Identical values can stand only once. Like-named read-outs stand apart in the source and are kept apart here.

A word on the Kd: it is the free concentration of one partner at which half of the binding sites on the other are occupied at equilibrium, for simple one-to-one binding. Higher therefore signals a looser complex.

Assay [1] concerns the target T1, α4 GREFP β2 AChR (Homo sapiens, UniProt P17787+P43681, I229P/K186G/K222F/T220E/Y218R). The assay is classed as binding.
The target of assay [2] is T2, α4 GREFP β4 AChR (Homo sapiens, UniProt P30926+P43681, I229P/K186G/K222F/T220E/Y218R).
The target of assay [3] is T3, α2 GFEP β4 AChR (Homo sapiens, UniProt P30926+Q15822, D246E/I251P/K208G/K244F).
The target of assay [4] is T4, α3 GFEP β4 AChR (Homo sapiens, UniProt P30926+P32297, I227P/K184G/K220F/N222E).
Assay [5] has as its target T3, α2 GFEP β4 AChR. Description: cell-based.
Assay [6] addresses T2, α4 GREFP β4 AChR. Kind of assay: Time course of ^125I-α-BTX dissociation. In kind it is binding.
For assay [7], the target named is T3, α2 GFEP β4 AChR. Description: Time course of ^125I-α-BTX dissociation. The assay is classed as binding.
Assay [8] concerns the target α7 AChR (Homo sapiens, UniProt P36544). In kind it is binding.
The target of assay [9] is T4, α3 GFEP β4 AChR. Description: Time course of ^125I-α-BTX dissociation. In kind it is binding.
Assay [10] deals with wild type α4β2 AChR (Homo sapiens, UniProt P17787+P43681). In kind it is binding.
In assay [11] the target is muscle AChR (α1, β, ε, δ) (Homo sapiens, UniProt P02708+Q04844+Q07001). The assay is classed as binding.
The target of assay [12] is T1, α4 GREFP β2 AChR. Description: Time course of ^125I-α-BTX dissociation. The assay is classed as binding.
Assay [13] deals with α2 GFEP β2 AChR (Homo sapiens, UniProt P17787+Q15822, D246E/I251P/K208G/K244F). In kind it is binding.
Sequence of α2 GFEP β2 AChR (P17787 26-502 limits assumed, stated change not applied): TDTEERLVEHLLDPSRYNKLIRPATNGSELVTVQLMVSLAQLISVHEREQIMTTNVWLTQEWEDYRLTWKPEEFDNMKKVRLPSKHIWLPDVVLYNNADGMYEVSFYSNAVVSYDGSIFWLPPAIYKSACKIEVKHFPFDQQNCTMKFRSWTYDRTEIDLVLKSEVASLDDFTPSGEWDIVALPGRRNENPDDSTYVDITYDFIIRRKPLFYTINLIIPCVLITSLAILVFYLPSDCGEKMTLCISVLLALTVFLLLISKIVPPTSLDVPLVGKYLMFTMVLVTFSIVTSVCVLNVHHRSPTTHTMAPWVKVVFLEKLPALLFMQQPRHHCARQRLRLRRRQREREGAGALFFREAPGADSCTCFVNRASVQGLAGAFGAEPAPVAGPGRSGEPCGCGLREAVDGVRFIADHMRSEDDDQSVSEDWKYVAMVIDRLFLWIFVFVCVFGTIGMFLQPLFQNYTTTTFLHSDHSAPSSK
Sequence of α2 GFEP β2 AChR (Q15822 27-529 K208G/K244F/D246E/I251P limits assumed, stated change not applied): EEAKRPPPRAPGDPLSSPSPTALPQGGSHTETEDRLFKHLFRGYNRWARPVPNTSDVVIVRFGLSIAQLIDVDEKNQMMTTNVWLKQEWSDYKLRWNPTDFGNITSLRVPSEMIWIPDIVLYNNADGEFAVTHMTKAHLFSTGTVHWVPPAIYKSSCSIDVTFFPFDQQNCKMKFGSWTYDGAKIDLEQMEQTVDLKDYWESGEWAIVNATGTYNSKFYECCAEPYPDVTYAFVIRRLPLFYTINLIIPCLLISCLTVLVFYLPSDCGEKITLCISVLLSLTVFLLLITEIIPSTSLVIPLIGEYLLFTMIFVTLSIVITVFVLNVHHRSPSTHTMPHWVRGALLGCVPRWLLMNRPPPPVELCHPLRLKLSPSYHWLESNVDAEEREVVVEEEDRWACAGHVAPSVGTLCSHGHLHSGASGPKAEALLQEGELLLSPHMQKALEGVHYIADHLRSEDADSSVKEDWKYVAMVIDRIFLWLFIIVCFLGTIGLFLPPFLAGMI

T4 sequence (P32297 32-505 K184G/K220F/N222E/I227P): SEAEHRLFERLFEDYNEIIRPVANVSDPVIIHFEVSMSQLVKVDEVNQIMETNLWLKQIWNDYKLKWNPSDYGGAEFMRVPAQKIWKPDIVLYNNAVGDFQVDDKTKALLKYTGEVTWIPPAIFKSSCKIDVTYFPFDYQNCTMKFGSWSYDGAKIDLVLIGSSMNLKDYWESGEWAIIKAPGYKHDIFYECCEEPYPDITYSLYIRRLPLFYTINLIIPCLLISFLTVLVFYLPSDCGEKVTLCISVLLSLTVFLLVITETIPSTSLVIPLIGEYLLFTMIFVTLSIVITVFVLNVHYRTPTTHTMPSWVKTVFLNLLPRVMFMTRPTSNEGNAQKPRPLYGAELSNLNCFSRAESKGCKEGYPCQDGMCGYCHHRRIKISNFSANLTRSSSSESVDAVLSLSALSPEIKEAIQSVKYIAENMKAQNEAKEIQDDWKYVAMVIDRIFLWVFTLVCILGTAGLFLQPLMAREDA
T4 sequence (P30926 22-498, stated change not applied): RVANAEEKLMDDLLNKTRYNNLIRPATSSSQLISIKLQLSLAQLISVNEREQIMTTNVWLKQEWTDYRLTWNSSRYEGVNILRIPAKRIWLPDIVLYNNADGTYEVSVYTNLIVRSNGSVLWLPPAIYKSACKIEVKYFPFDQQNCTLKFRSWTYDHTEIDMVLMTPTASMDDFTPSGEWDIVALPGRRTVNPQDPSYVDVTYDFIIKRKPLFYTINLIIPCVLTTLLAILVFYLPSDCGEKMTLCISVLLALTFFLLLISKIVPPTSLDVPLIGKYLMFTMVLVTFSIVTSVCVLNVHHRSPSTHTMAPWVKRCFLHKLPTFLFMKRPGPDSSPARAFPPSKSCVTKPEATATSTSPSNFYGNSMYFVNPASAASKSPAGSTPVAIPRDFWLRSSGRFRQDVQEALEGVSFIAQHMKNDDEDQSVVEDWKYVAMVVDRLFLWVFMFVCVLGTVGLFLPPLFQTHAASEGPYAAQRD
T1 sequence (P43681 29-627 K186G/Y218R/T220E/K222F/I229P): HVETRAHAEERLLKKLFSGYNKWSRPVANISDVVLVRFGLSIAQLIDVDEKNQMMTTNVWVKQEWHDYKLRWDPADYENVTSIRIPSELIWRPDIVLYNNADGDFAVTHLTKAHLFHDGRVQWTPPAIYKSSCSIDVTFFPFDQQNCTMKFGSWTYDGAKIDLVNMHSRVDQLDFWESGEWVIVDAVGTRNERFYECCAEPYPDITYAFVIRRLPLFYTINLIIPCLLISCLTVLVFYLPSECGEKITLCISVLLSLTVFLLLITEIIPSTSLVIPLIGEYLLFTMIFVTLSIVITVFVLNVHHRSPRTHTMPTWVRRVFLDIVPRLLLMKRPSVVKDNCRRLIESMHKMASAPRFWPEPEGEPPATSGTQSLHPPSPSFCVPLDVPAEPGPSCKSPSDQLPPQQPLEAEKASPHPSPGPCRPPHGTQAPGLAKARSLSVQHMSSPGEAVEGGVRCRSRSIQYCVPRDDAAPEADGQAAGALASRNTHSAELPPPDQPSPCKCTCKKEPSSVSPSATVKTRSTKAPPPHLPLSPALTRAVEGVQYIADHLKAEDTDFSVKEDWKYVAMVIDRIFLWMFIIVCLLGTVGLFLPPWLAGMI
T1 sequence (P17787 26-502, stated change not applied): as the sequence (P17787 26-502 limits assumed, stated change not applied) above
T3 sequence (P30926 22-498, stated change not applied): as the sequence (P30926 22-498, stated change not applied) above
T3 sequence (Q15822 27-529 K208G/K244F/D246E/I251P): as the sequence (Q15822 27-529 K208G/K244F/D246E/I251P limits assumed, stated change not applied) above
T2 sequence (P30926 22-498): as the sequence (P30926 22-498, stated change not applied) above
T2 sequence (P43681 29-627 K186G/Y218R/T220E/K222F/I229P): as the sequence (P43681 29-627 K186G/Y218R/T220E/K222F/I229P) above
Sequence of muscle AChR (α1, β, ε, δ) (P02708 21-457 limits assumed): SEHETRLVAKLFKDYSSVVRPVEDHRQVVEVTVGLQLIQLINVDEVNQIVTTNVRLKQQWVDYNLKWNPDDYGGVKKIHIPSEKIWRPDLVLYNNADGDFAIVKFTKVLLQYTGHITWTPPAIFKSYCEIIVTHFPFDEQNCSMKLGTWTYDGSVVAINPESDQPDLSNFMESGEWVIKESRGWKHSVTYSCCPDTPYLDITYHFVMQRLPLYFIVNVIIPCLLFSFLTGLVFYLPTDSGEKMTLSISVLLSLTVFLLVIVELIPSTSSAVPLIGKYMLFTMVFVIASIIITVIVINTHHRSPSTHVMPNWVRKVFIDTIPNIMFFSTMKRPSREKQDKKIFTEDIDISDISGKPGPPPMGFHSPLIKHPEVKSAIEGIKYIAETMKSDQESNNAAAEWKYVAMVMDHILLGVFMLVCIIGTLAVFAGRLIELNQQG
Sequence of muscle AChR (α1, β, ε, δ) (Q04844 21-493 limits assumed): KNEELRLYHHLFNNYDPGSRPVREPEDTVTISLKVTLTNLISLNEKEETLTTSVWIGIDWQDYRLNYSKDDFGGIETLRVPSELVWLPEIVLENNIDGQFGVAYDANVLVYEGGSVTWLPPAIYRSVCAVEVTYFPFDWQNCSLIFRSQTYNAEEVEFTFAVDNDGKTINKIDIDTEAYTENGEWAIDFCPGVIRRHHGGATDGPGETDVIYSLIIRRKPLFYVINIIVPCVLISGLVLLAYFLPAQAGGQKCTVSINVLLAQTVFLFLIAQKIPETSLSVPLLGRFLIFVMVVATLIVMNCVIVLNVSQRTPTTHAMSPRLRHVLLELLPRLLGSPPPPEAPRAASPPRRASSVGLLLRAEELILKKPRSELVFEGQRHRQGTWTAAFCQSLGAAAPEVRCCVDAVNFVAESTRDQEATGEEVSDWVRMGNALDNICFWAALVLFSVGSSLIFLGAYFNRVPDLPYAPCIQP
Sequence of muscle AChR (α1, β, ε, δ) (Q07001 22-517 limits assumed): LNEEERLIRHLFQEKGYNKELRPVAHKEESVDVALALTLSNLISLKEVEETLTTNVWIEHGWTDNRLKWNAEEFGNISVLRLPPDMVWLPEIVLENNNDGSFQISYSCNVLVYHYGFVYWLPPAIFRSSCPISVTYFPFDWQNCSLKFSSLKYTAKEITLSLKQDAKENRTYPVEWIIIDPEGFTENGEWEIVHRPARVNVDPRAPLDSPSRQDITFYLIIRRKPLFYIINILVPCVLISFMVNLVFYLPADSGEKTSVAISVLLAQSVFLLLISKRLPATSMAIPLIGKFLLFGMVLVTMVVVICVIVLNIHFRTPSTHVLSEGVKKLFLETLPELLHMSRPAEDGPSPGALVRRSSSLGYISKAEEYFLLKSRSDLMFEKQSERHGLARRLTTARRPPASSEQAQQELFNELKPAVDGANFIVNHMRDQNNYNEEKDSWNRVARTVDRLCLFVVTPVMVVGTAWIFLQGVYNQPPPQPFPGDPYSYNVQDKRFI
Sequence of α7 AChR (P36544 23-502 limits assumed): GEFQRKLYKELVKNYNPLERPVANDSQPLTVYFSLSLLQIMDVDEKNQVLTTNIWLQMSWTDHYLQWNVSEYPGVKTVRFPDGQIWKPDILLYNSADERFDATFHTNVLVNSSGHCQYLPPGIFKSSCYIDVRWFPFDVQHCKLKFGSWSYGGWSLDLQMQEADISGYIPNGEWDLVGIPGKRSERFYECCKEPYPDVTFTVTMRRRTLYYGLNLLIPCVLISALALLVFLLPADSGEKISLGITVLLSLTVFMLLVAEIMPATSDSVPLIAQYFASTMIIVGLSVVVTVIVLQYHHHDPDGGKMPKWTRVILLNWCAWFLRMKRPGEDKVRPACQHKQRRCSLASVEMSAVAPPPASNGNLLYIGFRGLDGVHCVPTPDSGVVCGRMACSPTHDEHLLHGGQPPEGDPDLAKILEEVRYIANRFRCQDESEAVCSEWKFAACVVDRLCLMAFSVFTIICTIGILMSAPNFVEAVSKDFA

Regarding `CN1CCC[C@H]1c1cccnc1` [Nicotine, (−)nicotine], the “nH (Hill coefficient)” value came out at 1.4 ± 0.1 in assay [1], 0.80 ± 0.1 in assay [2], 0.96 ± 0.1 in [3] and 0.75 ± 0.1 in assay [4]. For the same compound, the Kd in [5] is 210 nM.
On to `CC(=O)OCC[N+](C)(C)C` [ACh, Acetylcholine], for which the “nH (Hill coefficient)” value in assay [1] amounted to 0.81 ± 0.07.
Regarding `Clc1ccc(C2CC3CCC2N3)cn1` (racemic) [Epibatidine, (±) epibatidine], the “nH (Hill coefficient)” value in assay [1] (α4 GREFP + β2, ± S.E.) was 1.3 ± 0.1.
Take α-bungarotoxin [α-BTX]: the Half-life in assay [6] was determined as 19 h; in [7], 9.6 h; in assay [8], 133 h; in assay [9], 77 h; in [11], 5.4 h; in assay [12], 12.6 h. In assay [13], this compound had a Half-life of 6.0 h. In addition, the kdissoc was 1.0 ± 0.1 × 10^−5 s^−1 in assay [6]; 2.0 ± 0.3 × 10^−5 s^−1 in assay [7]; 1.5 ± 0.3 × 10^−6 s^−1 in [8]; 2.5 ± 0.9 × 10^−6 s^−1 in [9]; 3.5 ± 0.4 × 10^−5 s^−1 in [11]; 1.5 × 10^−5 s^−1 and 1.5 ± 0.2 × 10^−5 s^−1 in assay [12]. In assay [13], the kdissoc is 3.2 ± 0.3 × 10^−5 s^−1. The “affinity for the toxin (ratio of total to nonspecific binding close to one)” value in assay [10] is recorded as “negligible affinity”. For the same compound, in assay [12], the “dissociation constant from ratio of dissociation to association rate constants” value worked out at 0.3 nM.

Source of the values: publication PMC6842095 (Neuropharmacology, 2019).
